Laboratory results from publication PMC8081376 (Mutagenesis, 2020).

Legend:
[1] = tested on: mammalian cells (V79, CHO, CHL, HuLy, TK6, HepG2); settings: cited from earlier work
[2] = tested on: bacterial reverse mutation test (Ames test) strains; settings: cited from earlier work
[3] = tested on: Phenion®FT Skin Models (keratinocytes and fibroblasts); settings: application of the dye to the skin; ref [95]; cited from earlier work
[4] = tested on: mammalian cells (CHL, V79, CHO, HuLy); settings: cited from earlier work
rats and mice = settings: rodent studies; topical for sodium xylene sulfonate; ref [65], [72], [82], [85]; cited from earlier work
[5] = tested on: bone marrow, blood, liver, skin; settings: cited from earlier work
[6] = tested on: PRH, HepG2, CHO, TK6, CHL, MA-10 cells; settings: TK6 cell line; ref [73]; cited from earlier work
[7] = tested on: Phenion®FT Skin Models (keratinocytes and fibroblasts)

SMILES	Standard in vitro micronucleus test [1]	Ames test [2]	RS Comet assay outcome in SCCS opinion [3]	In vitro chromosomal aberration studies [4]	Carcinogenicity (rats and mice)	In vivo micronucleus test in mice [5]	In vitro comet assay [6]	Dose producing signs of strong cytotoxicity that limited the top dose (Phenion®FT Skin Models)	Call of statistical prediction models 1 and 2 [7]	Effect on % tail DNA / DNA migration in APC experiment [7]	Effect on % tail DNA / DNA migration in standard experiment [7]	Expert call of the performing laboratory in the coded phase [7]	RS Comet assay overall classification [7]
C[N+](C)(C)c1ccc2ccc(O)c(N=Nc3ccc(N)c([N+](=O)[O-])c3)c2c1.[Cl-] [Basic Brown 17]	negative findings	positive findings	lack of DNA damaging properties	–	–	–	–	–	–	–	–	–	–
O=CC=O [Glyoxal]	–	–	–	clear positive results	non-carcinogenic	negative results	positive response	25 µg/cm^2	positive	statistically significant increase in DNA migration was observed in keratinocytes at the highest dose tested	DNA migration was not increased in either cell type	negative	negative
